What was measured:
[1] = biological target: T1, NMDA receptor (NMDAR; GluN2B-containing) (Mus musculus, UniProt P35438+Q01097); assay: Fluo-3 NMDA-induced Ca2+ influx in primary neurons, single concentration ([…], […] reduction in AUC); type: cell-based
T1 construct: gene Grin2b; native receptor in DIV 10–12 cerebrocortical neurons; with GluN1

[2] = biological target: T1, NMDA receptor (NMDAR; GluN2B-containing); assay: Fluo-3 Ca2+ influx in primary neurons; […] inhibits NMDA response ([…] AUC); IC50 is against PbTx-2-induced influx; type: cell-based

T1 sequence (Q01097 27-1482, other chains not shown): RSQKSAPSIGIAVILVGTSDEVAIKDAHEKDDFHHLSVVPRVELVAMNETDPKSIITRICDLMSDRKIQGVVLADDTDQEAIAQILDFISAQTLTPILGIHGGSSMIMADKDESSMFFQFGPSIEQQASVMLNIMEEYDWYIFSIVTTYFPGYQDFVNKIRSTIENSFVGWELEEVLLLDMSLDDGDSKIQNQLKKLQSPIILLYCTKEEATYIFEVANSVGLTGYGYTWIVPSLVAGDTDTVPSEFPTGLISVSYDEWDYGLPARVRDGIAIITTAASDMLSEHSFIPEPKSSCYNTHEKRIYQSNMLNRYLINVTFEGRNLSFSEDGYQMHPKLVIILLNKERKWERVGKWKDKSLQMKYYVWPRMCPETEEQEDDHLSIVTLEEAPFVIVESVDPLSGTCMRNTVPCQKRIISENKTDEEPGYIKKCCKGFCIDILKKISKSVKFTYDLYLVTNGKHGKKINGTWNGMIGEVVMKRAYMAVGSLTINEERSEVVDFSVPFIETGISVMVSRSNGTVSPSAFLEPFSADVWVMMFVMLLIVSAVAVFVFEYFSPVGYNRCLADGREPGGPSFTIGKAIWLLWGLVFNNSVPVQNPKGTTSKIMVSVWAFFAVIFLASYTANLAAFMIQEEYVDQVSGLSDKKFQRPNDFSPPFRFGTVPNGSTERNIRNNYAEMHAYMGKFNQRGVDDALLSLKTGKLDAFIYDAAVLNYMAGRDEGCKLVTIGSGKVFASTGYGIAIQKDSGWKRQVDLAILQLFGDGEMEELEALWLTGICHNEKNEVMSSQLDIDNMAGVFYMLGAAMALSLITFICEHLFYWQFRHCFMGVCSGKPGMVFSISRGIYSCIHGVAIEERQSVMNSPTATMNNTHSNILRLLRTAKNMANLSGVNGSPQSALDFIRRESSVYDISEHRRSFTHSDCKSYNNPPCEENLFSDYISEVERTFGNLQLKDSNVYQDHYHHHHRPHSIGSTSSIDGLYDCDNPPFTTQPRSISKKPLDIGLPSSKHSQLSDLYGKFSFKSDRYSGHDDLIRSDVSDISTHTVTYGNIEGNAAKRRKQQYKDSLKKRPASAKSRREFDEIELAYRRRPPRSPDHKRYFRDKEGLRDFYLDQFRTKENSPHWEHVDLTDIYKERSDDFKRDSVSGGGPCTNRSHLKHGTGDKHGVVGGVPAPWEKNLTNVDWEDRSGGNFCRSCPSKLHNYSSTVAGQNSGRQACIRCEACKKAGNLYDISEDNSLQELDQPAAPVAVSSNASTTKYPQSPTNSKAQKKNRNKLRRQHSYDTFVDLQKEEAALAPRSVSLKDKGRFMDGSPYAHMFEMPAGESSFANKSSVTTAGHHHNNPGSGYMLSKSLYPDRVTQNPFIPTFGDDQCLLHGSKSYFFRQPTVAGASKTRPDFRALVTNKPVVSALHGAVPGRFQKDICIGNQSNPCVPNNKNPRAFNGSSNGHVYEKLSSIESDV

Compound | inhibition at 1 µM [1] | IC50 [2]
C[C@]12N[C@H](Cc3ccccc31)c1ccccc12 [MK-801] | 75% | 
CC(C(O)c1ccc(O)cc1)N1CCC(Cc2ccccc2)CC1 (centres unmarked) [ifenprodil] |  | 2200 nM

Source: PMC9504648 (Marine Drugs, 2022)
